# Patent US20230278972A1, “SUBSTITUTED HALOALKYL SULFONANILIDE HERBICIDES” (FMC Corporation, priority 2020, published 2023)
# Tests used:
# Assay type in all cases: in vivo
# [1] = tested on: goosegrass (Eleusine indica); assay: Test A1 preemergence, goosegrass
# In short: (§1)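 Plants grown in pots of loam/sand mix; preemergence = soil-directed spray on seeded pots, postemergence = spray at 1–2 leaves, height 2–10 cm; test chemicals formulated in non-phytotoxic solvent with surfactant.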
# [2] = tested on: Oat, Wild (wild oat, Avena fatua); assay: Test A1 preemergence, Oat, Wild
# In short: as §1
# [3] = tested on: ragweed (common ragweed, Ambrosia artemisiifolia); assay: Test A1 preemergence, ragweed
# In short: as §1
# [4] = tested on: wheat (Triticum aestivum); assay: Test A1 preemergence, wheat
# In short: as §1
# corn (Zea mays) = assay: Test A1 postemergence, corn; conditions: Postemergence
# In short: as §1
# [5] = tested on: goosegrass (Eleusine indica); assay: Test A1 postemergence, goosegrass; conditions: Postemergence
# In short: (§2)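 Test compounds were formulated in a non-phytotoxic solvent mixture containing a surfactant. For preemergence, seeds sown in a loam soil–sand blend received a directed soil spray. For postemergence, potted plants in the same soil, 2 to 10 cm tall at the one- to two-leaf stage, were sprayed.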
# kochia (Bassia scoparia) = assay: Test A1 postemergence, kochia; conditions: Postemergence
# In short: as §2
# [6] = tested on: Pigweed, Palmer (palmer amaranth, palmer pigweed, Amaranthus palmeri); assay: Test A1 postemergence, Pigweed, Palmer; conditions: Postemergence
# In short: as §2
# [7] = tested on: ragweed (common ragweed, Ambrosia artemisiifolia); assay: Test A1 postemergence, ragweed; conditions: Postemergence
# In short: as §2
# soybean (Glycine max) = assay: Test A1 postemergence, soybean; conditions: Postemergence
# In short: as §2
# [8] = 31 g ai/ha, 0 to 100 scale (0 no effect, 100 complete control)
# [9] = 125 g ai/ha, 0 to 100 scale, 0 no effect, 100 complete control
# [10] = 31 g ai/ha, 0 to 100 scale (0 no effect, 100 complete control), 10 days
Structure (SMILES),"Plant response rating, Goosegrass [1, 8]","Plant response rating, Goosegrass [1, 9]","Plant response rating, Oat, Wild [2, 8]","Plant response rating, Oat, Wild [2, 9]","Plant response rating, Ragweed [3, 8]","Plant response rating, Ragweed [3, 9]","Plant response rating, Wheat [4, 8]","Plant response rating, Wheat [4, 9]","Plant response rating, Corn (corn (Zea mays); [10])","Plant response rating, Corn (corn (Zea mays); 125 g ai/ha, 0 to 100 scale)","Plant response rating, Goosegrass [5, 10]","Plant response rating, Goosegrass ([5]; 125 g ai/ha, 0 to 100 scale)","Plant response rating, Kochia (kochia (Bassia scoparia); [10])","Plant response rating, Kochia (kochia (Bassia scoparia); 125 g ai/ha, 0 to 100 scale)","Plant response rating, Pigweed, Palmer [6, 10]","Plant response rating, Pigweed, Palmer ([6]; 125 g ai/ha, 0 to 100 scale)","Plant response rating, Ragweed [7, 10]","Plant response rating, Ragweed ([7]; 125 g ai/ha, 0 to 100 scale)","Plant response rating, Soybean (soybean (Glycine max); [10])","Plant response rating, Soybean (soybean (Glycine max); 125 g ai/ha, 0 to 100 scale)"
C#CCN(C)C(=O)c1cc(NS(=O)(=O)C(F)(F)F)c(Cl)c(F)c1C [Compound 337],50,100,0,20,70,90,10,60,30,40,0,90,40,70,30,50,50,90,50,70
COCC1CC(c2cc(N(COC(=O)C(C)(C)C)S(=O)(=O)C(F)(F)F)c(C)cc2C)=NO1 (stereo not drawn) [Compound 338],40,100,0,0,0,40,0,80,10,30,0,70,10,60,0,30,30,70,10,40
CCOC1CC(c2cc(N(COC(=O)C(C)(C)C)S(=O)(=O)C(F)(F)F)c(C)cc2C)=NO1 (stereo not drawn) [Compound 339],0,90,0,0,20,50,0,0,0,30,0,30,30,70,0,20,40,70,0,10
CCC1ON=C(c2cc(NS(=O)(=O)C(F)(F)F)c(C)cc2C)C1CC (stereo not drawn) [Compound 343],90,100,0,70,10,60,10,90,10,40,40,90,20,60,0,60,20,80,40,60
CCC1ON=C(c2cc(N(COC(=O)C(C)(C)C)S(=O)(=O)C(F)(F)F)c(C)cc2C)C1CC (stereo not drawn) [Compound 344],20,90,0,10,0,0,0,0,20,50,0,30,20,60,20,50,30,60,40,50
CCC1ON=C(c2cc(N(C(=O)OCC(C)C)S(=O)(=O)C(F)(F)F)c(C)cc2C)C1CC (stereo not drawn) [Compound 345],30,90,20,10,0,0,30,10,0,50,0,70,30,80,40,60,30,70,40,50
CCC1ON=C(c2cc(NS(=O)(=O)C(F)(F)F)c(C)cc2C)C1CC (stereo not drawn) [Compound 346],90,100,30,80,0,10,20,70,20,60,40,90,30,60,20,50,50,70,30,60
CCC1ON=C(c2cc(N(COC(=O)C(C)(C)C)S(=O)(=O)C(F)(F)F)c(C)cc2C)C1CC (stereo not drawn) [Compound 347],10,60,0,0,0,0,0,20,0,10,0,40,10,60,20,50,40,70,40,50
Cc1cc(C)c(C2=NOC3OCCC23)cc1NS(=O)(=O)C(F)(F)F (stereo not drawn) [Compound 349],90,100,10,50,30,90,20,70,40,90,90,90,70,80,20,70,70,90,30,70
